# Structures can show the parent of a compound that is named as a salt.
# Tests used:
# [1] = target: T1, 5-HT2 receptors (Rattus norvegicus, UniProt P14842); test: Affinity to 5-HT2 receptors (3H-ketanserin binding); conditions: 3H-ketanserin as ligand
# T1 construct: from tissue
# Procedure: Test 1. Affinity to 5-HT2 receptors
# The binding assay is carried out essentially as described by Leysen et al. (Mol. Pharmacol. 21,301-14, 1982) using ^3 H-ketanserin as ligand.
# [2] = target: T2, D2 -receptors (Rattus norvegicus, UniProt P61169); test: Affinity to D2-receptors (3H-spiroperidol binding); conditions: 3H-spiroperidol as ligand
# T2 construct: from tissue
# T2 sequence (P61169 whole entry): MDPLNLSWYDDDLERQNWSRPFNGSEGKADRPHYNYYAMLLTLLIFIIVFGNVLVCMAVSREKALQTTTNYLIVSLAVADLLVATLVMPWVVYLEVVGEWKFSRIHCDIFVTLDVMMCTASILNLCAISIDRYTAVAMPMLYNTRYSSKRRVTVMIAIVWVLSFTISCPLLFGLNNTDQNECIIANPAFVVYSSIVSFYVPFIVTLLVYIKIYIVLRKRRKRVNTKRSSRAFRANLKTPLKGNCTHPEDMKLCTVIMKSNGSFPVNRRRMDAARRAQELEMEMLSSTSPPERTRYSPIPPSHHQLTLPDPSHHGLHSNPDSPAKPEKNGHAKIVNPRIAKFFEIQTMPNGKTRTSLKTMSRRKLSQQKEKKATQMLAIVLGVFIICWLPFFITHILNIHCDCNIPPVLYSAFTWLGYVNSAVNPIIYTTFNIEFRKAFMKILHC
# Procedure: Test 2 Affinity to D2 -receptors.
# The binding assay is carried out essentially as described by Leysen et al. (Mol. Pharmacol. 21,301-14, 1982) using ^3 H-spiroperidol as ligand.
# T1 sequence (P14842 whole entry): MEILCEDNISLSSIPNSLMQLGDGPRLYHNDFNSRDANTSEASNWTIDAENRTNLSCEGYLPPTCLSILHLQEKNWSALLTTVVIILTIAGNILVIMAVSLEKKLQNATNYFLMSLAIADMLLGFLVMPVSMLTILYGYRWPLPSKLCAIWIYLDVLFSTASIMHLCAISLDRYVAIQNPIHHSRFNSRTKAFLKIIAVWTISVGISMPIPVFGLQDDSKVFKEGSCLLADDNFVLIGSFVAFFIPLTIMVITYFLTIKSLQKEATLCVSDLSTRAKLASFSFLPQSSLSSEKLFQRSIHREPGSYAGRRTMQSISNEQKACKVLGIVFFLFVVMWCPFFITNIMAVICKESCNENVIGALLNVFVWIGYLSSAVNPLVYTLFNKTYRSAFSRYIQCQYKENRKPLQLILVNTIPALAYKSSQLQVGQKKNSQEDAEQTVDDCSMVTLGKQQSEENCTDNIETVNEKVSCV
SMILES,Ki [1],Ki [2]
"CCNC(=O)N1CCN(CCCC(c2ccc(F)cc2)c2ccc(F)cc2)CC1 [Amperozide, reference compound]",17 nM,540 nM
"O=C(N1CCCC1)N1CCN(CCOC(c2ccc(F)cc2)c2ccc(F)cc2)CC1 [6:2, 1-[2-[(4,4'-Difluorobenzhydryl)oxy]ethyl]-4-(pyrrolidino-carbonyl)piperazine hydrochloride]",15 nM,1780 nM
"CNC(=S)N1CCN(CCOC(c2ccc(F)cc2)c2ccc(F)cc2)CC1 [3:4, 4-[2-[(4,4'Difluorobenzhydryl)oxy]-ethyl]-N-methyl-1-piperazinethiocarboxamide hydrochloride]",20 nM,1600 nM
"CCNC(=O)N1CCN(CCOC(c2ccc(F)cc2)c2ccc(F)cc2)CC1 [3:1, 4-[2-[(4,4'Difluorobenzhydryl)oxy]-ethyl]-N-ethyl-1-piperazinecarboxamide hydrochloride]",60 nM,> 10000 nM

# From patent US5574031A, “Piperazine carboxamides” (priority 1992, dated 1996)
